Results published in patent US7514106B2, “Compositions and methods for uterine relaxing” (Yangsen Biotechnology Co., Ltd., priority 2006, dated 2009).

How the values were obtained:
[1] = tested on: PGF2a-stimulated rat uterine muscle contraction; test: Inhibition of PGF2a-stimulated rat uterine muscle strip contraction (organ bath); format: cell-based; conditions: 20 μg/ml compound pretreatment for 10 min before PGF2a (1 μM)
Experimental: (§1) Uterine relaxing activities on OTC- and KCl-stimulated rat uterine muscle contraction were carried out according to the method described by Ostad S N, Soodi M, Shariffzadeh M, Khorshidi N, and Marzban H. (The effect of fennel essential oil on uterine contraction as a model for dysmenorrhea, pharmacology and toxicology study. Journal of Ethnopharmacology 2001; 76: 299-304.). Female virgin Sprague-Dawley rats (200 g to 300 g) were obtained from the Laboratory Animal Center at Yang-Ming University. They were primed with 5 mg/kg of estradiol (Sigma-Aldrich) 24 hours before the experiments, and then sacrificed by CO2 asphyxiation. Uterine strips free from adhering tissues were mounted under a resting tension of 1 g in a 10 ml organ bath containing dejalon solution gassed with carbogen (95% O2 and 5% CO2) at 31° C., which were then allowed to equilibrate for at least 1 hour. To evaluate the effect on the contractile response induced by PGF2a, a modified Locke-Ringer solution and a maintained temperature of 28° C. were used according to the method described by Murata. P, Hayakawa T, Satoh K, Kase Y, Ishige A, and Sasaki H. (Effects of Dai-kenchu-to, a herbal medicine, on uterine and intestinal motility. Phytotherapy Research 2001; 15: 302-6). Contractions were recorded by force displacements transducers (Grass Instruments USA) using MP100 workstation software (Biopac Systems USA) on a PC. […]

[2] = tested on: KCl-stimulated rat uterine muscle contraction; test: Inhibition of KCl-stimulated rat uterine muscle strip contraction (organ bath); format: cell-based; conditions: 20 μg/ml compound pretreatment for 10 min before KCl (60 mM)
Experimental: as §1

Structure (SMILES) | inhibition of muscle contraction [1] | inhibition at 20 µg/mL [2] [%]
C=CC(C)(O)CCC=C(C)C (stereo not shown) [linalool] | didn't show obvious inhibition | 27 to 46
Cc1ccc(C(C)C)c(O)c1 [thymol] | didn't show obvious inhibition | 27 to 46
